{
  "source": "patent US9314030B2",
  "about": "“Particulate wood preservative and method for producing same” (Koppers Performance Chemicals Inc., priority 2004, dated 2016)",
  "key": {"[1]": {"assay": "Wet milling of chlorothalonil with 0.5-0.6 mm cerium-doped zirconium oxide beads, particle size", "assay_type": "physicochemical", "method": "The laboratory-sized vertical mill was provided by CB Mills, model# L-3-J. The mill has a 2 liter capacity and is jacketed for cooling. Unless otherwise specified, ambient water was cycled through the mill cooling jacket during operation. The internal dimensions are 3.9″ diameter by 9.1″ height. The mill uses a standard 3×3″ disk agitator (mild steel) on a stainless steel shaft, and it operates at 2,620 rpm.\nThe media used in this Example was 0.4-0.5 mm zirconium silicate beads supplied by CB Mills. All particle size determinations were made with a Sedigraph™ 5100T manufactured by Micromeritics, which uses x-ray detection and bases calculations of size on Stokes' Law.\nThe same mill and conditions were used in this experiment as in experiment 1. However, the grinding media was 0.5-0.6 mm cerium-doped zirconium oxide beads obtained from CB Mills. The density of the cerium doped zirconium oxide is ˜6.0 g/cm^3. […] The total batch weight was about 600 g."}, "[2]": {"conditions": "treated wood; cited from earlier work"}, "[3]": {"conditions": "0.4-0.5 mm zirconium silicate, milling time 0 min"}, "[4]": {"conditions": "0.4-0.5 mm zirconium silicate, milling time 30 min"}, "[5]": {"conditions": "0.4-0.5 mm zirconium silicate, milling time 60 min"}, "[6]": {"conditions": "0.4-0.5 mm zirconium silicate, milling time 90 min"}, "[7]": {"conditions": "0.4-0.5 mm zirconium silicate, milling time 120 min"}, "[8]": {"conditions": "0.4-0.5 mm zirconium silicate, milling time 150 min"}, "[9]": {"conditions": "0.4-0.5 mm zirconium silicate, milling time 180 min"}, "[10]": {"conditions": "0.4-0.5 mm zirconium silicate, milling time 270 min"}, "[11]": {"conditions": "0.4-0.5 mm zirconium silicate, milling time 450 min"}, "[12]": {"conditions": "0.5-0.6 mm cerium-doped zirconium oxide, milling time 0 min"}, "[13]": {"conditions": "0.5-0.6 mm cerium-doped zirconium oxide, milling time 90 min"}, "[14]": {"conditions": "0.5-0.6 mm cerium-doped zirconium oxide, milling time 240 min"}, "[15]": {"conditions": "0.5 mm zirconia milling media, in 90 minutes"}, "[16]": {"conditions": "0.5 mm zirconia milling media, in 6 hours"}},
  "note": "Like-named read-outs stand apart in the source and are kept apart here.",
  "data": [
    {"molecule": "N#Cc1c(Cl)c(Cl)c(Cl)c(C#N)c1Cl", "note": "[chlorothalonil]", "values": [
      {"measurement": "d90", "setting": "0.4-0.5 mm zirconium silicate, at 60 minutes", "value": "about 2 microns"},
      {"measurement": "Particle Size Data-Volume % With Diamter Greater Than 2 μm", "setting": "[3]", "value": 95, "unit": "Volume %"},
      {"measurement": "Particle Size Data-Volume % With Diamter Greater Than 5 μm", "setting": "[3]", "value": 48, "unit": "Volume %"},
      {"measurement": "Particle Size Data-Volume % With Diamter Greater Than 10 μm", "setting": "[3]", "value": 10, "unit": "Volume %"},
      {"measurement": "d50", "setting": "[3]", "value": 4.9, "unit": "μm"},
      {"measurement": "Particle Size Data-Volume % With Diamter Greater Than 1 μm", "setting": "[4]", "value": 68, "unit": "Volume %"},
      {"measurement": "Particle Size Data-Volume % With Diamter Greater Than 2 μm", "setting": "[4]", "value": 21, "unit": "Volume %"},
      {"measurement": "Particle Size Data-Volume % With Diamter Greater Than 5 μm", "setting": "[4]", "value": 4, "unit": "Volume %"},
      {"measurement": "Particle Size Data-Volume % With Diamter Greater Than 10 μm", "setting": "[4]", "value": 0, "unit": "Volume %"},
      {"measurement": "d50", "setting": "[4]", "value": 1.3, "unit": "μm"},
      {"measurement": "Particle Size Data-Volume % With Diamter Greater Than 1 μm", "setting": "[5]", "value": 50, "unit": "Volume %"},
      {"measurement": "Particle Size Data-Volume % With Diamter Greater Than 2 μm", "setting": "[5]", "value": 11, "unit": "Volume %"},
      {"measurement": "Particle Size Data-Volume % With Diamter Greater Than 5 μm", "setting": "[5]", "value": 2, "unit": "Volume %"},
      {"measurement": "Particle Size Data-Volume % With Diamter Greater Than 10 μm", "setting": "[5]", "value": 4, "unit": "Volume %"},
      {"measurement": "d50", "setting": "[5]", "value": 1.0, "unit": "μm"},
      {"measurement": "Particle Size Data-Volume % With Diamter Greater Than 1 μm", "setting": "[6]", "value": 94, "unit": "Volume %"},
      {"measurement": "Particle Size Data-Volume % With Diamter Greater Than 2 μm", "setting": "[6]", "value": 22, "unit": "Volume %"},
      {"measurement": "Particle Size Data-Volume % With Diamter Greater Than 5 μm", "setting": "[6]", "value": 23, "unit": "Volume %"},
      {"measurement": "Particle Size Data-Volume % With Diamter Greater Than 10 μm", "setting": "[6]", "value": 18, "unit": "Volume %"},
      {"measurement": "d50", "setting": "[6]", "value": 1.4, "unit": "μm"},
      {"measurement": "Particle Size Data-Volume % With Diamter Greater Than 2 μm", "setting": "[7]", "value": 4, "unit": "Volume %"},
      {"measurement": "Particle Size Data-Volume % With Diamter Greater Than 5 μm", "setting": "[7]", "value": 0, "unit": "Volume %"},
      {"measurement": "Particle Size Data-Volume % With Diamter Greater Than 10 μm", "setting": "[7]", "value": 2, "unit": "Volume %"},
      {"measurement": "Particle Size Data-Volume % With Diamter Greater Than 1 μm", "setting": "[8]", "value": 58, "unit": "Volume %"},
      {"measurement": "Particle Size Data-Volume % With Diamter Greater Than 2 μm", "setting": "[8]", "value": 6, "unit": "Volume %"},
      {"measurement": "Particle Size Data-Volume % With Diamter Greater Than 5 μm", "setting": "[8]", "value": 2, "unit": "Volume %"},
      {"measurement": "Particle Size Data-Volume % With Diamter Greater Than 10 μm", "setting": "[8]", "value": 0, "unit": "Volume %"},
      {"measurement": "Particle Size Data-Volume % With Diamter Greater Than 1 μm", "setting": "[9]", "value": 53, "unit": "Volume %"},
      {"measurement": "Particle Size Data-Volume % With Diamter Greater Than 2 μm", "setting": "[9]", "value": 7, "unit": "Volume %"},
      {"measurement": "Particle Size Data-Volume % With Diamter Greater Than 5 μm", "setting": "[9]", "value": 2, "unit": "Volume %"},
      {"measurement": "Particle Size Data-Volume % With Diamter Greater Than 10 μm", "setting": "[9]", "value": 2, "unit": "Volume %"},
      {"measurement": "Particle Size Data-Volume % With Diamter Greater Than 1 μm", "setting": "[10]", "value": 54, "unit": "Volume %"},
      {"measurement": "Particle Size Data-Volume % With Diamter Greater Than 2 μm", "setting": "[10]", "value": 8, "unit": "Volume %"},
      {"measurement": "Particle Size Data-Volume % With Diamter Greater Than 5 μm", "setting": "[10]", "value": 0, "unit": "Volume %"},
      {"measurement": "Particle Size Data-Volume % With Diamter Greater Than 10 μm", "setting": "[10]", "value": 2, "unit": "Volume %"},
      {"measurement": "Particle Size Data-Volume % With Diamter Greater Than 1 μm", "setting": "[11]", "value": 56, "unit": "Volume %"},
      {"measurement": "Particle Size Data-Volume % With Diamter Greater Than 2 μm", "setting": "[11]", "value": 21, "unit": "Volume %"},
      {"measurement": "Particle Size Data-Volume % With Diamter Greater Than 5 μm", "setting": "[11]", "value": 8, "unit": "Volume %"},
      {"measurement": "Particle Size Data-Volume % With Diamter Greater Than 10 μm", "setting": "[11]", "value": 12, "unit": "Volume %"},
      {"measurement": "d50", "setting": "0.4-0.5 mm zirconium silicate, within about one hour", "value": "~1", "unit": "micron"},
      {"measurement": "starting particle size", "setting": "before wet milling", "value": "3-4 microns"},
      {"measurement": "Particle Size Data-Volume % With Diamter Greater Than 1 μm", "setting": "[1]; [12]", "value": 92, "unit": "Volume %"},
      {"measurement": "Particle Size Data-Volume % With Diamter Greater Than 2 μm", "setting": "[1]; [12]", "value": 77, "unit": "Volume %"},
      {"measurement": "Particle Size Data-Volume % With Diamter Greater Than 5 μm", "setting": "[1]; [12]", "value": 30, "unit": "Volume %"},
      {"measurement": "Particle Size Data-Volume % With Diamter Greater Than 10 μm", "setting": "[1]; [12]", "value": 8, "unit": "Volume %"},
      {"measurement": "Particle Size Data-Volume % With Diamter Greater Than 0.4 μm", "setting": "[1]; [13]", "value": 22, "unit": "Volume %"},
      {"measurement": "Particle Size Data-Volume % With Diamter Greater Than 1 μm", "setting": "[1]; [13]", "value": 3, "unit": "Volume %"},
      {"measurement": "Particle Size Data-Volume % With Diamter Greater Than 2 μm", "setting": "[1]; [13]", "value": 3, "unit": "Volume %"},
      {"measurement": "Particle Size Data-Volume % With Diamter Greater Than 5 μm", "setting": "[1]; [13]", "value": 3, "unit": "Volume %"},
      {"measurement": "Particle Size Data-Volume % With Diamter Greater Than 10 μm", "setting": "[1]; [13]", "value": 3, "unit": "Volume %"},
      {"measurement": "d50", "setting": "[1]; [13]", "value": 0.31, "unit": "μm"},
      {"measurement": "Particle Size Data-Volume % With Diamter Greater Than 0.2 μm", "setting": "[1]; [14]", "value": 51, "unit": "Volume %"},
      {"measurement": "Particle Size Data-Volume % With Diamter Greater Than 0.4 μm", "setting": "[1]; [14]", "value": 3, "unit": "Volume %"},
      {"measurement": "Particle Size Data-Volume % With Diamter Greater Than 1 μm", "setting": "[1]; [14]", "value": 3, "unit": "Volume %"},
      {"measurement": "Particle Size Data-Volume % With Diamter Greater Than 2 μm", "setting": "[1]; [14]", "value": 2, "unit": "Volume %"},
      {"measurement": "Particle Size Data-Volume % With Diamter Greater Than 5 μm", "setting": "[1]; [14]", "value": 1, "unit": "Volume %"},
      {"measurement": "Particle Size Data-Volume % With Diamter Greater Than 10 μm", "setting": "[1]; [14]", "value": 0, "unit": "Volume %"},
      {"measurement": "d50", "setting": "[1]; [14]", "value": 0.21, "unit": "μm"},
      {"measurement": "d50", "setting": "[1]; [15]", "value": "less than 1 micron"},
      {"measurement": "d95", "setting": "[1]; [15]", "value": "less than 1 micron"},
      {"measurement": "d50", "setting": "[1]; [16]", "value": "less than 0.3 microns"},
      {"measurement": "d95", "setting": "[1]; [16]", "value": "less than 0.4 microns"}
    ]},
    {"molecule": "copper citrate", "values": [
      {"measurement": "copper in leachate relative to CCA baseline", "setting": "[2]", "value": "over fifteen times the baseline concentration"}
    ]}
  ]
}
